Assays:
[1] = target: T1, human B1R receptor (Homo sapiens, UniProt P46663); assay: Functional study on the bradykinin receptor 1 (B1R), FLIPR Ca2+ assay, hB1R cells; format: cell-based; conditions: CHO-K1, test substance 10 μM, agonist Lys-Des-Arg9-bradykinin 0.5 nM, % inhibition compared with the maximum achievable inhibition, read-out: B1R Antagonism, human [10 μM] % Inhibition
T1 construct: host or cells: CHO K1 cells (Chinese hamster ovary), stably transfected
T1 sequence (P46663 1-353): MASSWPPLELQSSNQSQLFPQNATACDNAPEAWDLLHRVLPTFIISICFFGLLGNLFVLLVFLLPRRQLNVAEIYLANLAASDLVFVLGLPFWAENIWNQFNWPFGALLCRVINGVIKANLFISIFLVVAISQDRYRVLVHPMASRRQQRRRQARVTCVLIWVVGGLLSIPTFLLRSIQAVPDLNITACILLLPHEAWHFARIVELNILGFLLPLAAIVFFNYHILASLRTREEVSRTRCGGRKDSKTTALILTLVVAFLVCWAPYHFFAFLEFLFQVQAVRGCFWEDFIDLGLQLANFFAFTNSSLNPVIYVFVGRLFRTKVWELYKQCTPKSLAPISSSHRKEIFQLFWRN
In short: (§1)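 FLIPR Ca2+ read-out (Fluo-4, peak fluorescence) in stably transfected CHO K1 cells. Compounds at 10 μM, then 10 min later agonist challenge: human B1R with Lys-Des-Arg9-bradykinin 0.5 nM, rat B1R with Des-Arg9-bradykinin 100 nM; reported as % activation or % of maximal inhibition.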

[2] = target: T2, B1R receptor of the rat (Rattus norvegicus, UniProt P97583); assay: Functional study on the bradykinin receptor 1 (B1R), FLIPR Ca2+ assay, rB1R cells; format: cell-based; conditions: CHO-K1, test substance 10 μM, agonist Des-Arg9-bradykinin 100 nM, % inhibition compared with the maximum achievable inhibition, read-out: B1R Antagonism, rat [10 μM] % Inhibition
T2 construct: host or cells: CHO K1 cells (Chinese hamster ovary), stably transfected
T2 sequence (P97583 1-337): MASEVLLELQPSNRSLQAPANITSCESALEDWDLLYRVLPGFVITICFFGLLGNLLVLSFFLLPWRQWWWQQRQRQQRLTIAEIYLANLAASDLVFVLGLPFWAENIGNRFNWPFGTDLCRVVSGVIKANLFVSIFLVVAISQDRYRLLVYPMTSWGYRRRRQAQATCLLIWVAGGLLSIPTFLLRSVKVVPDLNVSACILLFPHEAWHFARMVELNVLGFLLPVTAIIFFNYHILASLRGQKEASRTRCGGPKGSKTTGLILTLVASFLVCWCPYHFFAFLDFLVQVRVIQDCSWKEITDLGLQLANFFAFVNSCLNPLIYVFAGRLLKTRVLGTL
In short: as §1

Row | SMILES | inhibition at 10 µM [1] | inhibition at 10 µM [2]
1 | COc1cc(C)c(S(=O)(=O)N2CCCC2COCC(=O)N2CCC(CCN3CCCCC3)CC2)c(C)c1 (stereo not drawn) [Example 268, 2-((1-(4-methoxy-2,6-dimethylphenylsulfonyl)pyrrolidin-2-yl)methoxy)-1-(4-(2-(piperidin-1-yl)ethyl)piperidin-1-yl)ethanone] | 104% | 102%
2 | COc1cc(C)c(S(=O)(=O)N2CCCC2COCC(=O)N2CCN(CCn3c(C)ccc3C)CC2)c(C)c1 (stereo not drawn) [Example 269, 1-(4-(2-(2,5-dimethyl-1H-pyrrol-1-yl)ethyl)piperazin-1-yl)-2-((1-(4-methoxy-2,6-dimethylphenylsulfonyl)pyrrolidin-2-yl)methoxy)ethanone] | 104% | 99%
3 | COc1cc(C)c(S(=O)(=O)N2CCCC2COCC(=O)N2CCN(CCN(C(C)C)C(C)C)CC2)c(C)c1 (stereo not drawn) [Example 270, 1-(4-(2-(diisopropylamino)ethyl)piperazin-1-yl)-2-((1-(4-methoxy-2,6-dimethylphenylsulfonyl)pyrrolidin-2-yl)methoxy)ethanone] | 104% | 93.4%
4 | COc1cc(C)c(S(=O)(=O)N2CCCC2COCC(=O)N2CCCC2c2ccccn2)c(C)c1 (stereo not drawn) [Example 271, 2-((1-(4-methoxy-2,6-dimethylphenylsulfonyl)pyrrolidin-2-yl)methoxy)-1-(2-(pyridin-2-yl)pyrrolidin-1-yl)ethanone] | 59.1% | 85.9%
5 | COc1cc(C)c(S(=O)(=O)N2CCCC2COCC(=O)N2CCC(c3cccnc3)C2)c(C)c1 (stereo not drawn) [Example 272, 2-((1-(4-methoxy-2,6-dimethylphenylsulfonyl)pyrrolidin-2-yl)methoxy)-1-(3-(pyridin-3-yl)pyrrolidin-1-yl)ethanone] | 97.1% | 84.6%
6 | COc1cc(C)c(S(=O)(=O)N2CCCC2COCC(=O)N2CCC(c3ccncc3)C2)c(C)c1 (stereo not drawn) [Example 273, 2-((1-(4-methoxy-2,6-dimethylphenylsulfonyl)pyrrolidin-2-yl)methoxy)-1-(3-(pyridin-4-yl)pyrrolidin-1-yl)ethanone] | 96% | 84.9%
7 | COc1cc(C)c(S(=O)(=O)N2Cc3ccccc3CC2COCC(=O)N2CCC(N3CCN(C)CC3)CC2)c(C)c1C (stereo not drawn) [Example 275, 2-((2-(4-methoxy-2,3,6-trimethylphenylsulfonyl)-1,2,3,4-tetrahydroisoquinolin-3-yl)methoxy)-1-(4-(4-methylpiperazin-1-yl)piperidin-1-yl)ethanone] | 102% | 93.1%
8 | COc1cc(C)c(S(=O)(=O)N2Cc3ccccc3CC2COCC(=O)N2CCC(CCN3CCCCC3)CC2)c(C)c1C (stereo not drawn) [Example 276, 2-((2-(4-methoxy-2,3,6-trimethylphenylsulfonyl)-1,2,3,4-tetrahydroisoquinolin-3-yl)methoxy)-1-(4-(2-(piperidin-1-yl)ethyl)piperidin-1-yl)ethanone] | 98.9% | 94.2%
9 | COc1cc(C)c(S(=O)(=O)N2Cc3ccccc3CC2COCC(=O)N2CCCCC2Cc2cccc(C)n2)c(C)c1C (stereo not drawn) [Example 277, 2-((2-(4-methoxy-2,3,6-trimethylphenylsulfonyl)-1,2,3,4-tetrahydroisoquinolin-3-yl)methoxy)-1-(2-((6-methylpyridin-2-yl)methyl)piperidin-1-yl)ethanone] | 85.5% | 81.6%
10 | CN1CCN(C2CCN(C(=O)COCC3CCCN3S(=O)(=O)c3c(Cl)cccc3Cl)CC2)CC1 (stereo not drawn) [Example 285, 2-((1-(2,6-dichlorophenylsulfonyl)pyrrolidin-2-yl)methoxy)-1-(4-(4-methylpiperazin-1-yl)piperidin-1-yl)ethanone] | 104% | 91%
11 | COc1cc(C)c(S(=O)(=O)N2CCCCC2COCC(=O)N2CCN(C(C)C)CC2)c(C)c1 (stereo not drawn) [Example 291, 1-(4-isopropylpiperazin-1-yl)-2-((1-(4-methoxy-2,6-dimethylphenylsulfonyl)piperidin-2-yl)methoxy)ethanone] | 104% | 93%

Further lines, results first:

Row | inhibition at 10 µM [1] | inhibition at 10 µM [2] | SMILES
12 | 104% | 98.1% | COc1cc(C)c(S(=O)(=O)N2CCCC2COCC(=O)N2CCN(c3ccncc3)CC2)c(C)c1 (stereo not drawn) [Example 274, 2-((1-(4-methoxy-2,6-dimethylphenylsulfonyl)pyrrolidin-2-yl)methoxy)-1-(4-(pyridin-4-yl)piperazin-1-yl)ethanone]
13 | 104% | 96.9% | CN1CCN(C2CCN(C(=O)COCC3CCCCN3S(=O)(=O)c3c(Cl)cccc3Cl)CC2)CC1 (stereo not drawn) [Example 278, 2-((1-(2,6-dichlorophenylsulfonyl)piperidin-2-yl)methoxy)-1-(4-(4-methylpiperazin-1-yl)piperidin-1-yl)ethanone]
14 | 104% | 95.4% | O=C(COCC1CCCCN1S(=O)(=O)c1c(Cl)cccc1Cl)N1CCC(CCN2CCCCC2)CC1 (stereo not drawn) [Example 279, 2-((1-(2,6-dichlorophenylsulfonyl)piperidin-2-yl)methoxy)-1-(4-(2-(piperidin-1-yl)ethyl)piperidin-1-yl)ethanone]
15 | 104% | 92% | Cc1ccc(C)n1CCN1CCN(C(=O)COCC2CCCCN2S(=O)(=O)c2c(Cl)cccc2Cl)CC1 (stereo not drawn) [Example 280, 2-((1-(2,6-dichlorophenylsulfonyl)piperidin-2-yl)methoxy)-1-(4-(2-(2,5-dimethyl-1H-pyrrol-1-yl)ethyl)piperazin-1-yl)ethanone]
16 | 104% | 92.4% | CC(C)N(CCN1CCN(C(=O)COCC2CCCCN2S(=O)(=O)c2c(Cl)cccc2Cl)CC1)C(C)C (stereo not drawn) [Example 281, 2-((1-(2,6-dichlorophenylsulfonyl)piperidin-2-yl)methoxy)-1-(4-(2-(diisopropylamino)ethyl)piperazin-1-yl)ethanone]
17 | 103% | 86% | O=C(COCC1CCCCN1S(=O)(=O)c1c(Cl)cccc1Cl)N1CCC(c2ccncc2)C1 (stereo not drawn) [Example 282, 2-((1-(2,6-dichlorophenylsulfonyl)piperidin-2-yl)methoxy)-1-(3-(pyridin-4-yl)pyrrolidin-1-yl)ethanone]
18 | 103% | 92.9% | O=C(COCC1CCCCN1S(=O)(=O)c1c(Cl)cccc1Cl)N1CCN(c2ccncc2)CC1 (stereo not drawn) [Example 283, 2-((1-(2,6-dichlorophenylsulfonyl)piperidin-2-yl)methoxy)-1-(4-(pyridin-4-yl)piperazin-1-yl)ethanone]
19 | 103% | 93.5% | Cc1cccc(CC2CCCCN2C(=O)COCC2CCCCN2S(=O)(=O)c2c(Cl)cccc2Cl)n1 (stereo not drawn) [Example 284, 2-((1-(2,6-dichlorophenylsulfonyl)piperidin-2-yl)methoxy)-1-(2-((6-methylpyridin-2-yl)methyl)piperidin-1-yl)ethanone]
20 | 104% | 97.9% | O=C(COCC1CCCN1S(=O)(=O)c1c(Cl)cccc1Cl)N1CCC(CCN2CCCCC2)CC1 (stereo not drawn) [Example 286, 2-((1-(2,6-dichlorophenylsulfonyl)pyrrolidin-2-yl)methoxy)-1-(4-(2-(piperidin-1-yl)ethyl)piperidin-1-yl)ethanone]
21 | 101% | 89.2% | Cc1ccc(C)n1CCN1CCN(C(=O)COCC2CCCN2S(=O)(=O)c2c(Cl)cccc2Cl)CC1 (stereo not drawn) [Example 287, 2-((1-(2,6-dichlorophenylsulfonyl)pyrrolidin-2-yl)methoxy)-1-(4-(2-(2,5-dimethyl-1H-pyrrol-1-yl)ethyl)piperazin-1-yl)ethanone]
22 | 102% | 93.3% | COc1cccc(N2CCN(C(=O)COCC3CCCCN3S(=O)(=O)c3c(C)cc(OC)cc3C)CC2)c1 (stereo not drawn) [Example 288, 2-((1-(4-methoxy-2,6-dimethylphenylsulfonyl)piperidin-2-yl)methoxy)-1-(4-(3-methoxyphenyl)piperazin-1-yl)ethanone]
23 | 103% | 95.5% | COc1cc(C)c(S(=O)(=O)N2CCCCC2COCC(=O)N2CCN(c3ccc(F)cc3)CC2)c(C)c1 (stereo not drawn) [Example 289, 1-(4-(4-fluorophenyl)piperazin-1-yl)-2-((1-(4-methoxy-2,6-dimethylphenylsulfonyl)piperidin-2-yl)methoxy)ethanone]
24 | 104% | 92.9% | COc1ccc(N2CCN(C(=O)COCC3CCCCN3S(=O)(=O)c3c(C)cc(OC)cc3C)CC2)cc1 (stereo not drawn) [Example 290, 2-((1-(4-methoxy-2,6-dimethylphenylsulfonyl)piperidin-2-yl)methoxy)-1-(4-(4-methoxyphenyl)piperazin-1-yl)ethanone]
